Results on five molecules are retold here after ChEMBL document CHEMBL2385022, “Therapeutic and pharmacokinetic characterizations of an anti-amyloidogenic bis-styrylbenzene derivative for Alzheimer's disease treatment” (Bioorg Med Chem Lett, 2013).

The subject of series [1] is Mus musculus. Put plainly: Cognitive enhancing effect in amyloid beta (1-42) infused ICR mouse assessed as increase in alternation behavior at 30 mg/kg/day, ip administered 1 day prior to amyloid beta (1-42) infusion and continued for 6 days measured on day 6 by Y-maze test (reference value: 64.1%). The class given is functional. The note with it: route intraperitoneal.

Series [2] addresses hERG (KCNH2) (Homo sapiens, UniProt Q12809). Put plainly: Inhibition of human ERG in HEK293 cells at 10 uM by patch clamp assay relative to control. The format is cell-based. Conditions: HEK293 cells expressing human ERG.
For series [3], the system named is Rattus norvegicus. The series is described as follows: Acute toxicity in Sprague-Dawley rat assessed as mortality at 500 to 2000 mg/kg, po after 14 days. The format is organism-based. The note with it: in vivo, 336 h. Set-up: dose 500-2000 mg/kg, route oral.
The test system of series [4] is Rattus norvegicus. The series is described as follows: Toxicity in Sprague-Dawley rat assessed as change in body weight at 2000 mg/kg, po after 14 days (reference value: 199.1 +/- 4.8 g). The format is organism-based. More on the design: dose 2000 mg/kg, route oral. The note with it: in vivo, 336 h.
Series [5] concerns Rattus norvegicus. Put plainly: Toxicity in Sprague-Dawley rat assessed as change in body weight at 2000 mg/kg, po after 10 days (reference value: 175.9 +/- 5.1 g). The class given is organism-based. More on the design: dose 2000 mg/kg, route oral. Conditions: in vivo, 240 h.
In series [6] the test system is Rattus norvegicus. Put plainly: Toxicity in Sprague-Dawley rat assessed as change in body weight at 2000 mg/kg, po after 5 days (reference value: 148.4 +/- 3.2 g). The class given is organism-based. More on the design: dose 2000 mg/kg, route oral. Conditions: in vivo, 120 h.
Series [7] deals with Rattus norvegicus. Put plainly: Toxicity in Sprague-Dawley rat assessed as change in body weight at 2000 mg/kg, po after 1 day (reference value: 130.6 +/- 4.6 g). More on the design: dose 2000 mg/kg, route oral. Conditions: in vivo, 24 h. The class given is organism-based.
Series [8] deals with Rattus norvegicus. The series is described as follows: Toxicity in Sprague-Dawley rat assessed as change in body weight at 1000 mg/kg, po after 14 days (reference value: 199.1 +/- 4.8 g). The format is organism-based. More on the design: dose 1000 mg/kg, route oral. Conditions: in vivo, 336 h.
The test system of series [9] is Rattus norvegicus. Put plainly: Toxicity in Sprague-Dawley rat assessed as change in body weight at 1000 mg/kg, po after 10 days (reference value: 175.9 +/- 5.1 g). The format is organism-based. More on the design: dose 1000 mg/kg, route oral. Conditions: in vivo, 240 h.
In series [10] the test system is Rattus norvegicus. Put plainly: Toxicity in Sprague-Dawley rat assessed as change in body weight at 1000 mg/kg, po after 1 day (reference value: 130.6 +/- 4.6 g). Set-up: dose 1000 mg/kg, route oral. The note with it: in vivo, 24 h. The class given is organism-based.
Series [11] concerns Rattus norvegicus. Put plainly: Toxicity in Sprague-Dawley rat assessed as change in body weight at 1000 mg/kg, po after 5 days (reference value: 148.4 +/- 3.2 g). The class given is organism-based. Set-up: dose 1000 mg/kg, route oral. Conditions: in vivo, 120 h.
The subject of series [12] is Rattus norvegicus. The series is described as follows: Toxicity in Sprague-Dawley rat assessed as change in body weight at 500 mg/kg, po after 14 days (reference value: 199.1 +/- 4.8 g). Set-up: dose 500 mg/kg, route oral. Conditions: in vivo, 336 h. The class given is organism-based.
Series [13] deals with Rattus norvegicus. Put plainly: Toxicity in Sprague-Dawley rat assessed as change in body weight at 500 mg/kg, po after 10 days (reference value: 175.9 +/- 5.1 g). The class given is organism-based. More on the design: dose 500 mg/kg, route oral. Conditions: in vivo, 240 h.
Series [14] concerns Rattus norvegicus. Put plainly: Toxicity in Sprague-Dawley rat assessed as change in body weight at 500 mg/kg, po after 5 days (reference value: 148.4 +/- 3.2 g). The class given is organism-based. More on the design: dose 500 mg/kg, route oral. The note with it: in vivo, 120 h.
Series [15] concerns Rattus norvegicus. Put plainly: Toxicity in Sprague-Dawley rat assessed as change in body weight at 500 mg/kg, po after 1 day (reference value: 130.6 +/- 4.6 g). The class given is organism-based. More on the design: dose 500 mg/kg, route oral. The note with it: in vivo, 24 h.
The nature of series [16]: Apparent permeability from apical to basolateral side in mouse bEND.3 /rat C6 co-culture cell model after 1 hr by Transwell assay. The format is ADME.
In series [17] the target is Amyloid-beta precursor protein (Homo sapiens) (UniProt P05067). Put plainly: Inhibition of amyloid beta (1-42) fibril aggregation (unknown origin) at 100 uM after 20 hrs by transmission electron microscopic analysis.
A short description of series [18]: Acute toxicity in po dosed Sprague-Dawley rat assessed as mortality after 14 days. The note with it: in vivo. The format is organism-based.
Series [19] in a line: Oral bioavailability in ICR mouse at 20 mg/kg. The class given is ADME, organism-based. Conditions: in vivo.
Series [20] is described as follows: Half life in ICR mouse plasma at 10 mg/kg, iv. The class given is ADME, organism-based. Set-up: dose 10 mg/kg, route intravenous.
Series [21] can be described thus: Half life in ICR mouse brain at 10 mg/kg, iv. The format is ADME, organism-based. More on the design: dose 10 mg/kg, route intravenous.
Series [22] is described as follows: Half life in ICR mouse plasma at 20 mg/kg, po. The class given is ADME, organism-based. More on the design: dose 20 mg/kg, route oral.
Series [23] can be described thus: Half life in ICR mouse brain at 20 mg/kg, po. The class given is ADME, organism-based. More on the design: dose 20 mg/kg, route oral.
The nature of series [24]: Tmax in ICR mouse plasma at 10 mg/kg, iv. The class given is ADME, organism-based. Set-up: dose 10 mg/kg, route intravenous.
Series [25] can be described thus: Tmax in ICR mouse brain at 10 mg/kg, iv. More on the design: dose 10 mg/kg, route intravenous. The format is ADME, organism-based.
A short description of series [26]: Tmax in ICR mouse plasma at 20 mg/kg, po. The class given is ADME, organism-based. Set-up: dose 20 mg/kg, route oral.
A short description of series [27]: Tmax in ICR mouse brain at 20 mg/kg, po. Set-up: dose 20 mg/kg, route oral. The class given is ADME, organism-based.
Series [28] is described as follows: Cmax in ICR mouse brain at 10 mg/kg, iv. The format is ADME, organism-based. More on the design: dose 10 mg/kg, route intravenous.
The nature of series [29]: Cmax in ICR mouse plasma at 10 mg/kg, iv. Set-up: dose 10 mg/kg, route intravenous. The format is ADME, organism-based.
The nature of series [30]: Cmax in ICR mouse plasma at 20 mg/kg, po. The class given is ADME, organism-based. More on the design: dose 20 mg/kg, route oral.
The nature of series [31]: Cmax in ICR mouse brain at 20 mg/kg, po. The class given is ADME, organism-based. Set-up: dose 20 mg/kg, route oral.
Series [32] can be described thus: AUC (0 to 24 hrs) in ICR mouse plasma at 10 mg/kg, iv. The class given is ADME, organism-based. Set-up: time < 24 hr, dose 10 mg/kg, route intravenous.
The nature of series [33]: AUC (0 to 24 hrs) in ICR mouse brain at 10 mg/kg, iv. The format is ADME, organism-based. More on the design: time < 24 hr, dose 10 mg/kg, route intravenous.
Series [34] is described as follows: AUC (0 to 24 hrs) in ICR mouse brain at 20 mg/kg, po. The class given is ADME, organism-based. Set-up: time < 24 hr, dose 20 mg/kg, route oral.
Series [35] can be described thus: AUC (0 to 24 hrs) in ICR mouse plasma at 20 mg/kg, po. The format is ADME, organism-based. More on the design: time < 24 hr, dose 20 mg/kg, route oral.
Series [36] concerns Mus musculus. The series is described as follows: Ratio of drug level in brain to plasma in ICR mouse at 10 mg/kg, iv […]. Conditions: in vivo.
Series [37] relates to Mus musculus. The series is described as follows: Ratio of drug level in brain to plasma in ICR mouse at 20 mg/kg, po […]. The note with it: in vivo.

The source made the active and inactive calls. The calls are words filed in the database; no cut-off is given here.

Amyloid-beta precursor protein (Homo sapiens), sequence (P05067 whole entry): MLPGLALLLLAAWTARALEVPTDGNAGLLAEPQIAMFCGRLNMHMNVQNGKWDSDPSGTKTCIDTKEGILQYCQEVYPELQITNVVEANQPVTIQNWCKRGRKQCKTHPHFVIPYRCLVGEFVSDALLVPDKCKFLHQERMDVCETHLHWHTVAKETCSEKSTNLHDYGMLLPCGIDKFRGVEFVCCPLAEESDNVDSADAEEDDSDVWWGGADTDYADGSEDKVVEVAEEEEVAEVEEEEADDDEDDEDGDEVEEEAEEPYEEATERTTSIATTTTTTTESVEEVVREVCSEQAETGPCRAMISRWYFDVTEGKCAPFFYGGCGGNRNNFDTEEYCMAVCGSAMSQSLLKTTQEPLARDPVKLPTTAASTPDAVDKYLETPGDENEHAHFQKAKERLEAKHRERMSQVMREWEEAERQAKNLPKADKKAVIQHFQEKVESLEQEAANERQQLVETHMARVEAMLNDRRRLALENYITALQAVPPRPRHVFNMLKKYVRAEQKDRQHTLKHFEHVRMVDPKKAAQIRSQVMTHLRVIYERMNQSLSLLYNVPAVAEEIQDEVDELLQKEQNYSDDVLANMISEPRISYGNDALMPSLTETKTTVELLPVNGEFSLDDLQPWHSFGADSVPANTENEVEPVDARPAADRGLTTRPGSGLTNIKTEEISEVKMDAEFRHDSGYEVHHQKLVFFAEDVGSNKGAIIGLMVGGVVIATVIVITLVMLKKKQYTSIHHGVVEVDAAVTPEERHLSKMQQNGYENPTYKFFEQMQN
hERG (KCNH2), sequence (Q12809 whole entry): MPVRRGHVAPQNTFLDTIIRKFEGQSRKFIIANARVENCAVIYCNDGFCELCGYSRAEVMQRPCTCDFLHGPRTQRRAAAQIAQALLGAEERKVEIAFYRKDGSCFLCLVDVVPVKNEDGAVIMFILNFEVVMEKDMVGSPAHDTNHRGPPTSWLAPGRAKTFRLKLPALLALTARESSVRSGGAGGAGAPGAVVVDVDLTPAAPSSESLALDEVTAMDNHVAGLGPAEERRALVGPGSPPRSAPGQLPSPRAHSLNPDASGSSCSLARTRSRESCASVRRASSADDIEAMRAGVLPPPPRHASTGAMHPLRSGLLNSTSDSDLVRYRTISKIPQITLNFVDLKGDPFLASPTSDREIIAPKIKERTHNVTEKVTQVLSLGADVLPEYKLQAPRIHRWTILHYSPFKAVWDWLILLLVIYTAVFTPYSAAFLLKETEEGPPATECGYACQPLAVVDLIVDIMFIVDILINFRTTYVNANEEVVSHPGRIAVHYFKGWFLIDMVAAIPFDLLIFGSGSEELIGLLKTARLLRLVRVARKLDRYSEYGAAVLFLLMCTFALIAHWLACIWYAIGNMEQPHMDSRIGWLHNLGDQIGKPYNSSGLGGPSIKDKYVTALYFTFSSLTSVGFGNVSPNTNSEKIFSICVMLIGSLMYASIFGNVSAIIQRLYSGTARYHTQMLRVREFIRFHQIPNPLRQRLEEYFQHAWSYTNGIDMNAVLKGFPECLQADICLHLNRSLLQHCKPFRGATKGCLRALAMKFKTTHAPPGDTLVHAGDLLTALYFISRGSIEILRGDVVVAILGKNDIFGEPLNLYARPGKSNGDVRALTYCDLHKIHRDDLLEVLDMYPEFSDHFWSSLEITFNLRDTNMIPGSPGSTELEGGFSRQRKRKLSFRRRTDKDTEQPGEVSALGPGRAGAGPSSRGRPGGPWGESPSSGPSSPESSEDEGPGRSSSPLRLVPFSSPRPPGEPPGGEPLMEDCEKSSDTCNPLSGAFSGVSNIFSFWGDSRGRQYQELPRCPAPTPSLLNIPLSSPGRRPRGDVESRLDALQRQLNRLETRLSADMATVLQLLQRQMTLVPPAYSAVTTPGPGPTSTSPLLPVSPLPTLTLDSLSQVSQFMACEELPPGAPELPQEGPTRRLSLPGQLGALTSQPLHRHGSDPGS

As to `NCCCS(=O)(=O)O` [TRAMIPROSATE], the Activity is reported as 67.3% in series [1]; “Non-toxic” in series [3]; 194.3 g in series [4]; 171.5 g in series [5]; 147.2 g in series [6]; 131.4 g in series [7]. Moreover, the Activity in [8] is given as 195.4 g; in [9], 174.7 g; in [10] it was 131.1 g; in series [11], 149.6 g; in [12] it was 188 g; in [13], 167.2 g. Moreover, the figures for the Activity in [14] and in [15] were 145.3 g and 130.7 g, respectively. The molecule further yielded an inhibition at 10 µM in series [2] of 18%.
For the molecule `COC(=O)c1ccccc1-c1c2ccc(=N)cc-2oc2cc(N)ccc12.Cl` [RHODAMINE123], the Papp A→B at 1 h in series [16] was 32 ×10⁻⁶ cm/s.
With `COc1cc(/C=C/C(=O)CC(=O)/C=C/c2ccc(O)c(OC)c2)ccc1O`, the inhibition result in series [17] is “Active”.
For the molecule `CNc1ccc(/C=C/c2cccc(/C=C/c3ccc(NC)c(OC)c3)c2)cc1OC`, the Activity result in series [3] was “Non-toxic”.
As to `COc1cc(/C=C/c2cccc(/C=C/c3ccc(N(C)C)c(OC)c3)c2)ccc1N(C)C`, the Activity in series [1] is on record as 70%; in series [4] it was 174.6 g; in [5], 157.8 g; in [6], 128.3 g; in series [7], 132.4 g; in series [8], 182.2 g. In addition, the Activity in [9] is on record as 164.2 g; in series [10], 132 g; in series [11], 138.9 g; in series [12], 183.9 g; in series [13] it was 164.1 g; in [14] it was 142.6 g. The Activity in series [15] is recorded as 131.5 g. For the same molecule, in [2], the inhibition at 10 µM is 14%. Moreover, the 50% lethal dose (LD50) at 336 h in [18] was more than 2000 mg/kg. In addition, the Papp A→B at 1 h in [16] was found to be 670 ×10⁻⁶ cm/s. Besides, the bioavailability in series [19] turned out to be 46.2%. Also, the half-life in series [20] was 7.3 h; in series [21], 6.04 h; in [22] it was 9.4 h; in [23], 14.5 h. Further, the Tmax came to 4.8 min in series [24], 0.4 h in series [25], 1 h in series [26] and 4.7 h in [27]. Further, the Cmax in [28] was 1410 ng/mL; in series [29], 13100 ng/mL; in series [30], 3490 ng/mL; in [31], 395 ng/mL. For the same molecule, the AUC(0-t) at 24 h in series [32] came out at 31600 ng·h/mL; in series [33] it was 8100 ng·h/mL; in series [34], 4530 ng·h/mL; in series [35] it was 29200 ng·h/mL. In addition, the inhibition entry in series [17] was “Active”. The Drug uptake stood at 26% in series [36] and 15% in [37].

Broadly, the inhibition is the drop in the measured response relative to a control, in per cent. What is called Papp A→B is how fast a substance crosses the layer from the apical side. The LD50 is the dose expected to kill half of the subjects tested. The term bioavailability denotes dose-corrected exposure relative to a reference, in per cent. A high value points to much systemic uptake. Usually half-life stands for the time in which the quantity being followed falls by half. A high value points to slow decline. In general, Tmax refers to the time at which the peak concentration occurs. In general, Cmax refers to the maximum level reached in the sampled fluid or tissue. The term AUC(0-t) denotes the area under the concentration-time curve up to a stated or last time point. Higher therefore signals more exposure.
